# Experimental data taken from patent US12577255B2, “MDM2-based modulators of proteolysis and associated methods of use” (Arvinas Operations, Inc., priority 2015, dated 2026).
# Target: T1, androgen receptor (AR) (Homo sapiens, UniProt P10275)
# T1 construct: detects endogenous levels of total androgen receptor protein; host or cells: VCaP
# T1 sequence (P10275 1-920): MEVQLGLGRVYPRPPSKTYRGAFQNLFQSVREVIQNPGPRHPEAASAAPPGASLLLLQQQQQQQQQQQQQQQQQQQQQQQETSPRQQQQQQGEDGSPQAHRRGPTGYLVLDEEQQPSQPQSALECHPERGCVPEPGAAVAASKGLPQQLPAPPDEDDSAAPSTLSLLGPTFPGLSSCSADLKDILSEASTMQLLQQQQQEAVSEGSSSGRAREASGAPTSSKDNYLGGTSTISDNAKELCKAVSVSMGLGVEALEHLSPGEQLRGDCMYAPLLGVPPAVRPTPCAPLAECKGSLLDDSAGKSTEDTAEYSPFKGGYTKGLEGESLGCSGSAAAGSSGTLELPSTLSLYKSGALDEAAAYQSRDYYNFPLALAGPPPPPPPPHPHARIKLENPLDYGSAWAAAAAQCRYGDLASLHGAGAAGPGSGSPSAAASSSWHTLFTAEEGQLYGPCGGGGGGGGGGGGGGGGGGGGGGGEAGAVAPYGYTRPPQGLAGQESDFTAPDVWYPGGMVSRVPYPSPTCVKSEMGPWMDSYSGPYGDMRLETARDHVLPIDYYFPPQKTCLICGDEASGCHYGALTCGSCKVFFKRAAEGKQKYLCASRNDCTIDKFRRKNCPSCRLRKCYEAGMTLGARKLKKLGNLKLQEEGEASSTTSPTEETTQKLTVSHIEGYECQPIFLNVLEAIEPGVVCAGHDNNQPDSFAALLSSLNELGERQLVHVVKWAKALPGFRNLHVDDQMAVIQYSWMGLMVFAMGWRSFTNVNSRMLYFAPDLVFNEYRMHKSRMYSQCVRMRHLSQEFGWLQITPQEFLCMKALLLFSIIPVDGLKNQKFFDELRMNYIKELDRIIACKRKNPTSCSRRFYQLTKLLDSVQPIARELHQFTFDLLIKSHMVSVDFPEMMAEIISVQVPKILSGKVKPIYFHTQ
# Assay: AR ELISA assay (degradation)
# Format: cell-based
# Settings: VCaP cells, 16 h
# Method: The following biological assays were performed to evaluate the protein degradation in various cell types using representative compounds disclosed. The degradation of the following proteins were evaluated: bromodomain-containing protein 4 (BRD4), androgen receptor (AR), c-Myc, c-Jun N-terminal kinases (JNK), and enhancer of zeste homolog 2 (EZH2).
# VCaP cells were chased from ATCC and cultured in Dulbecco's Modified Eagle's Medium (ATCC), supplemented with 10% FBS (ATCC) and Penicillin/Streptomycin (Life Technologies). DMSO control and compound treatments (0.0001 μM to 1 μM) were performed in 96-well plates for 16 h. cells were harvested, and lysed with Cell Lysis Buffer (catalog #9803) (20 mM Tris-HCl, pH 7.5, 150 mM NaCl, 1 mM Na2EDTA, 1 mM EGTA, 1% Triton, 2.5 mM sodium pyrophosphate, 1 mM B-glycerophosphate, 1 mM Na3VO4, 1 μg/mL leupeptin. Lysates were clarified at 16,000 g for 10 minutes, and loaded into PathScan AR ELISA (Cell Signaling Catalog #12850). The PathScan Total Androgen Receptor Sanwich ELISA Kit is a solid phase sandwich enzyme-linked immunosorbent assay (ELISA) that detects endogenous levels of total androgen receptor protein. An Androgen Receptor Rabbit mAb has been coated onto the microwells. After incubation with cell lysates, androgen receptor protein is captured by the coated antibody. Following extensive washing, an Androgen receptor Mouse Detection mAbis added to detect the captured androgen receptor protein. Anti-mouse IgG, HRP-linked Antibody is then used to recognize the bound detection antibody. HRP substrate, TMB, is added to develop color. The magnitude of absorbance for the developed color is proportional to the quantity of total androgen receptor protein.
row,Compound,AR degradation (%) at 1 µM [%]
1,"CC(C)(C)C[C@@H]1N[C@@H](C(=O)NCCOCCOCCOCCOCCOc2ccc(C(=O)N[C@H]3C(C)(C)[C@H](Oc4ccc(C#N)c(Cl)c4)C3(C)C)cc2)[C@H](c2cccc(Cl)c2F)[C@@]1(C#N)c1ccc(Cl)cc1F [Compound A1720, (2R,3S,4R,5S)-3-(3-chloro-2-fluorophenyl)-4-(4-chloro-2-fluorophenyl)-4-cyano-5-(2,2-dimethylpropyl)-N-[1-(4-{[(1,3-trans)-3-(3-chloro-4-cyanophenoxy)-2,2,4,4-tetramethylcyclobutyl]carbamoyl}phenyl)-1,4,7,10,13-pentaoxapentadecan-15-yl]pyrrolidine-2-carboxamide]",25 to 50
2,"CC(C)(C)C[C@H]1N[C@H](C(=O)NCCOCCOCCOCCOCCOc2ccc(C(=O)N[C@H]3C(C)(C)[C@H](Oc4ccc(C#N)c(Cl)c4)C3(C)C)cc2)[C@@H](c2cccc(Cl)c2F)[C@]1(C#N)c1ccc(Cl)cc1F [Compound A1735, (2S,3R,4S,5R)-3-(3-chloro-2-fluorophenyl)-4-(4-chloro-2-fluorophenyl)-4-cyano-5-(2,2-dimethylpropyl)-N-[1-(4-{[(1r,3r)-3-(3-chloro-4-cyanophenoxy)-2,2,4,4-tetramethylcyclobutyl]carbamoyl]phenyl)-1,4,7,10,13-pentaoxapentadecan-15-yl]pyrrolidine-2-carboxamide]",0 to 25
3,"CCOc1cc(C(C)(C)C)ccc1C1=NC(C)(c2ccc(Cl)cc2)C(C)(c2ccc(Cl)cc2)N1C(=O)N1CCN(CCOCCOCCOCCOCCOCCOc2ccc(N3C(=S)N(c4ccc(C#N)c(C(F)(F)F)c4)C(=O)C3(C)C)cc2)CC1 (stereo not shown) [Compound A702, 4-(3-{4-[(17-{4-[2-(4-tert-butyl-2-ethoxyphenyl)-4,5-bis(4-chlorophenyl)-4,5-dimethyl-4,5-dihydro-1H-imidazole-1-carbonyl]piperazin-1-yl}-3,6,9,12,15-pentaoxaheptadecan-1-yl)oxy]phenyl}-4,4-dimethyl-5-oxo-2-sulfanylideneimidazolidin-1-yl)-2-(trifluoromethyl)benzonitrile]",25 to 50
4,"COc1cc(C(=O)NCCCOCCCCCOc2ccc(N3C(=S)N(c4ccc(C#N)c(C(F)(F)F)c4)C(=O)C3(C)C)cc2)ccc1NC(=O)C1NC(CC(C)(C)C)C(C#N)(c2ccc(Cl)cc2F)C1c1cccc(Cl)c1F (stereo not shown) [Compound A2435, 3-(3-chloro-2-fluorophenyl)-4-(4-chloro-2-fluorophenyl)-4-cyano-N-{4-[(3-{[5-(4-{3-[4-cyano-3-(trifluoromethyl)phenyl]-5,5-dimethyl-4-oxo-2-sulfanylideneimidazolidin-1-yl}phenoxy)pentyl]oxy}propyl)carbamoyl]-2-methoxyphenyl}-5-(2,2-dimethylpropyl)pyrrolidine-2-carboxamide]",> 50
5,"CCOc1cc(C(C)(C)C)ccc1C1=NC(C)(c2ccc(Cl)cc2)C(C)(c2ccc(Cl)cc2)N1C(=O)N1CCN(CCOCCOc2ccc(N3C(=S)N(c4ccc(C#N)c(C(F)(F)F)c4)C(=O)C3(C)C)cc2)CC1 (stereo not shown) [Compound A680, 4-(3-{4-[2-(2-{4-[2-(4-tert-butyl-2-ethoxyphenyl)-4,5-bis(4-chlorophenyl)-4,5-dimethyl-4,5-dihydro-1H-imidazole-1-carbonyl]piperazin-1-yl}ethoxy)ethoxy]phenyl}-4,4-dimethyl-5-oxo-2-sulfanylideneimidazolidin-1-yl)-2-(trifluoromethyl)benzonitrile]",0 to 25
6,"CC(C)(C)C[C@@H]1NC(C(=O)NCCOCCOCCOCCOCCOc2ccc(C(=O)N[C@H]3C(C)(C)[C@H](Oc4ccc(C#N)c(Cl)c4)C3(C)C)cc2)[C@H](c2cccc(Cl)c2F)[C@@]1(C#N)c1ccc(Cl)cc1F (stereo partly drawn) [Compound A1717, 3-(3-chloro-2-fluorophenyl)-4-(4-chloro-2-fluorophenyl)-4-cyano-5-(2,2-dimethylpropyl)-N-[1-(4-{[(1,3-trans)-3-(3-chloro-4-cyanophenoxy)-2,2,4,4-tetramethylcyclobutyl]carbamoyl}phenyl)-1,4,7,10,13-pentaoxapentadecan-15-yl]pyrrolidine-2-carboxamide]",25 to 50
7,"CC(C)(C)C[C@@H]1NC(C(=O)NCCOCCOCCOCCOc2ccc(C(=O)N[C@H]3C(C)(C)[C@H](Oc4ccc(C#N)c(Cl)c4)C3(C)C)cc2)[C@H](c2cccc(Cl)c2F)[C@@]1(C#N)c1ccc(Cl)cc1F (stereo partly drawn) [Compound A1603, 3-(3-chloro-2-fluorophenyl)-4-(4-chloro-2-fluorophenyl)-4-cyano-5-(2,2-dimethylpropyl)-N-[1-(4-{[(1,3-trans)-3-(3-chloro-4-cyanophenoxy)-2,2,4,4-tetramethylcyclobutyl]carbamoyl}phenyl)-1,4,7,10-tetraoxadodecan-12-yl]pyrrolidine-2-carboxamide]",0 to 25
8,"CC(C)(C)CC1NC(C(=O)NCCCOCCCCCOc2ccc(N3C(=S)N(c4ccc(C#N)c(C(F)(F)F)c4)C(=O)C3(C)C)cc2)C(c2cccc(Cl)c2F)C1(C#N)c1ccc(Cl)cc1F (stereo not shown) [Compound A2434, 3-(3-chloro-2-fluorophenyl)-4-(4-chloro-2-fluorophenyl)-4-cyano-N-(3-{[5-(4-{3-[4-cyano-3-(trifluoromethyl)phenyl]-5,5-dimethyl-4-oxo-2-sulfanylideneimidazolidin-1-yl}phenoxy)pentyl]oxy}propyl)-5-(2,2-dimethylpropyl)pyrrolidine-2-carboxamide]",> 50

# Tested on: p53
# Assay: Western blot of HCT116 cells, p53 level
# Format: cell-based, human
# Settings: Western blot (FIG. 2, FIG. 3)
row,Compound,p53 level increase
1,"COc1cc(C(=O)NCCOCCOCCOCCOCC(=O)N[C@H](C(=O)N2C[C@H](O)C[C@H]2C(=O)NCc2ccc(-c3scnc3C)cc2)C(C)(C)C)ccc1NC(=O)C1NC(CC(C)(C)C)C(C#N)(c2ccc(Cl)cc2F)C1c1cccc(Cl)c1F (mixture of isomers) [Compound A1895, 3-(3-chloro-2-fluorophenyl)-4-(4-chloro-2-fluorophenyl)-4-cyano-5-(2,2-dimethylpropyl)-N-{4-[(1-{[(2S)-1-[(2S,4R)-4-hydroxy-2-({[4-(4-methyl-1,3-thiazol-5-yl)phenyl]methyl}carbamoyl)pyrrolidin-1-yl]-3,3-dimethyl-1-oxobutan-2-yl]carbamoyl}-2,5,8,11-tetraoxatridecan-13-yl)carbamoyl]-2-methoxyphenyl}pyrrolidine-2-carboxamide]",dose dependent p53 level increase
2,"COc1cc(C(=O)NCCOCCOCCOCC(=O)N[C@H](C(=O)N2C[C@H](O)C[C@H]2C(=O)NCc2ccc(-c3scnc3C)cc2)C(C)(C)C)ccc1NC(=O)[C@@H]1N[C@@H](CC(C)(C)C)[C@](C#N)(c2ccc(Cl)cc2F)[C@H]1c1cccc(Cl)c1F [Compound A1910, (2R,3S,4R,5S)-3-(3-chloro-2-fluorophenyl)-4-(4-chloro-2-fluorophenyl)-4-cyano-5-(2,2-dimethylpropyl)-N-{4-[(2-{2-[2-({[(2S)-1-[(2S,4R)-4-hydroxy-2-({[4-(4-methyl-1,3-thiazol-5-yl)phenyl]methyl}-carbamoyl)pyrrolidin-1-yl]-3,3-dimethyl-1-oxobutan-2-yl]carbamoyl}methoxy)-ethoxy]ethoxy}ethyl)carbamoyl]-2-methoxyphenyl}pyrrolidine-2-carboxamide]",dose dependent p53 level increase
